Test results: DBAASP
In brackets after ≈: the same amount, converted by molar mass. Several values for one entry are separate records, joined by “and”; a condition that tells them apart may be missing. Equal entries are not always repeated. Values belong to the compound of their own block, whether it stands above or below them.

Assays:
Test in all cases: ≥ marks a high value that may be exact or a test limit, other limits are often not marked, values filed in µg/mL are converted to µM
[1] = test system: Staphylococcus aureus USA 300
[2] = test system: Staphylococcus aureus ATCC 9144
[3] = test system: Acinetobacter baumannii ATCC 17978
[4] = test system: Candida albicans ATCC 90028
[5] = test system: Pseudomonas aeruginosa PAO1
[6] = test system: Klebsiella pneumoniae NCTC 13368
[7] = test system: Escherichia coli NCTC 12923
[8] = test system: Micrococcus luteus ATCC 10420
Salmonella typhimurium = test system: Salmonella typhimurium
[9] = test system: Staphylococcus aureus ATCC 43300
[10] = test system: Salmonella enterica subsp. enterica serovar Typhimurium ATCC 14028
[11] = test system: Escherichia coli DH5alpha
Escherichia coli O157 = test system: Escherichia coli O157
Listeria monocytogenes = test system: Listeria monocytogenes
[12] = test system: Staphylococcus aureus ATCC 6538
[13] = test system: Escherichia coli ATCC 25404
[14] = test system: Micrococcus luteus ATCC 4698
[15] = test system: Staphylococcus aureus ATCC 29213
[16] = test system: Klebsiella pneumoniae ATCC 10031
[17] = test system: Staphylococcus epidermidis ATCC 9709
[18] = test system: Staphylococcus epidermidis ATCC 12228
[19] = test system: Staphylococcus aureus ATCC 25923
[20] = test system: Bacillus subtilis DSM 347
[21] = test system: Escherichia coli DSM 1116
[22] = test system: Staphylococcus xylosus DSM 20287
[23] = test system: Franconibacter helveticus DSM 18390
Candida albicans MDM8 = test system: Candida albicans MDM8
[24] = test system: Serratia marcescens ATCC 4112
[25] = test system: Bacillus subtilis ATCC 6633
[26] = test system: Enterobacter cloacae beta-12
[27] = test system: Bacillus megaterium ATCC 10778
Micrococcus luteus A270 = test system: Micrococcus luteus A270
Escherichia coli SBS 363 = test system: Escherichia coli SBS 363
[28] = test system: Candida tropicalis IOC 4560
[29] = test system: Pseudomonas aeruginosa NCIB 10421
Escherichia coli UB1005 = test system: Escherichia coli UB1005
[30] = test system: Streptococcus pyogenes ATCC 19615
[31] = test system: Salmonella enterica subsp. enterica serovar Typhimurium ATCC 14028s
Corynebacterium xerosis = test system: Corynebacterium xerosis
[32] = test system: Pseudomonas aeruginosa K799
[33] = test system: Streptococcus pneumoniae ATCC 49619
[34] = test system: Staphylococcus epidermidis C621
Streptococcus mitis = test system: Streptococcus mitis
[35] = test system: Enterococcus faecalis ATCC 29212

Compound: C[C@H](NC(=O)CNC(=O)[C@H](CCCCN)NC(=O)[C@@H](N)CS)C(=O)N[C@@H](Cc1ccccc1)C(=O)N[C@@H](CCCCN)C(=O)N[C@@H](CCC(N)=O)C(=O)N[C@H](C(=O)N[C@@H](CS)C(=O)N[C@@H](CCCCN)C(=O)N[C@@H](CS)C(=O)N[C@@H](Cc1ccc(O)cc1)C(N)=O)[C@@H](C)O [CKGAFKQTCKCY]
MIC [1]: ≥ 92.8 µM | MIC [2]: ≥ 92.8 µM | MIC [3]: ≥ 92.8 µM | MIC [4]: 4.4 µM (≈ 6.07 µg/mL) | MIC [5]: > 92.8 µM | MIC [6]: ≥ 92.8 µM | MIC [7]: ≥ 92.8 µM

MIC [8]: 2 µM (≈ 2.84 µg/mL) | MIC (Salmonella typhimurium): ≥ 64 µM | MIC [9]: 4 µM (≈ 5.68 µg/mL) | MIC [10]: > 70.4 µM | MIC [11]: ≥ 98.5 µM | MIC (Escherichia coli O157): ≥ 64 µM | MIC (Listeria monocytogenes): 2 µM (≈ 2.84 µg/mL) | MIC [12]: 3.52 µM (≈ 5 µg/mL) | MIC [13]: ≥ 64 µM | MIC [14]: 2.11 µM (≈ 3 µg/mL) | MIC [15]: 4 µM and > 2 µM | MIC [16]: 17.6 µM (≈ 25 µg/mL) | MIC [17]: 4 µM (≈ 5.68 µg/mL) | MIC [18]: 6.33 µM (≈ 9 µg/mL)
Compound: CC(C)C[C@H](NC(=O)[C@H](CC(C)C)NC(=O)[C@H](CCCCN)NC(=O)[C@H](CO)NC(=O)[C@H](CC(C)C)NC(=O)[C@H](C)NC(=O)[C@H](CCCCN)NC(=O)[C@H](Cc1ccccc1)NC(=O)[C@H](CC(C)C)NC(=O)[C@H](C)NC(=O)CNC(=O)[C@H](CC(C)C)NC(=O)[C@@H](N)Cc1ccccc1)C(=O)O [FLGALFKALSKLL]

MIC [8]: 4 µM (≈ 5.88 µg/mL) | MIC (Salmonella typhimurium): ≥ 64 µM | MIC [19]: 4 µM (≈ 5.88 µg/mL) | MIC (Escherichia coli O157): ≥ 64 µM | MIC (Listeria monocytogenes): 8 µM (≈ 11.8 µg/mL) | MIC [13]: ≥ 64 µM | MIC [17]: 4 µM (≈ 5.88 µg/mL)
Compound: CC(C)C[C@H](NC(=O)[C@H](CC(C)C)NC(=O)[C@H](Cc1cnc[nH]1)NC(=O)[C@H](CO)NC(=O)[C@H](CC(C)C)NC(=O)[C@H](C)NC(=O)[C@H](CCCCN)NC(=O)[C@H](Cc1c[nH]c2ccccc12)NC(=O)[C@H](CC(C)C)NC(=O)[C@H](C)NC(=O)CNC(=O)[C@H](CC(C)C)NC(=O)[C@@H](N)Cc1ccccc1)C(=O)O [FLGALWKALSHLL]

MIC [20]: 0.89 µM (≈ 2 µg/mL) | MIC [21]: 1.78 µM (≈ 4 µg/mL) | MIC [22]: 0.89 µM (≈ 2 µg/mL) | MIC [23]: 1.26 µM (≈ 2.83 µg/mL)
Compound: CC[C@H](C)[C@H](N)C(=O)N[C@@H](C)C(=O)N[C@@H](CCCCN)C(=O)N[C@H](C(=O)N[C@@H](C)C(=O)NCC(=O)N[C@@H](CCCCN)C(=O)N[C@H](C(=O)N[C@@H](C)C(=O)N[C@@H](CCCCN)C(=O)N[C@H](C(=O)N[C@@H](C)C(=O)NCC(=O)N[C@@H](CCCCN)C(=O)N[C@H](C(=O)N[C@@H](C)C(=O)N[C@@H](CCCCN)C(=O)N[C@H](C(=O)N[C@@H](C)C(=O)NCC(=O)N[C@@H](CCCCN)C(=O)N[C@H](C(=O)N[C@@H](C)C(N)=O)[C@@H](C)CC)[C@@H](C)CC)[C@@H](C)CC)[C@@H](C)CC)[C@@H](C)CC)[C@@H](C)CC [IAKIAGKIAKIAGKIAKIAGKIA]

MIC (Candida albicans MDM8): 3.13 µM (≈ 4.81 µg/mL) | MIC [24]: 0.78 µM (≈ 1.2 µg/mL) | MIC [25]: 0.78 µM (≈ 1.2 µg/mL) | MIC [26]: 12.5 µM (≈ 19.2 µg/mL) | MIC [27]: 0.78 µM (≈ 1.2 µg/mL) | MIC (Micrococcus luteus A270): 0.78 µM (≈ 1.2 µg/mL) | MIC (Escherichia coli SBS 363): 3.13 µM (≈ 4.81 µg/mL) | MIC [15]: 6.25 µM (≈ 9.61 µg/mL) | MIC [28]: 1.56 µM (≈ 2.4 µg/mL) | MIC [29]: 25 µM (≈ 38.4 µg/mL)
Compound: CC[C@H](C)[C@H](N)C(=O)N[C@@H](CC(C)C)C(=O)NCC(=O)N[C@@H](CCCCN)C(=O)N[C@@H](Cc1ccccc1)C(=O)N[C@@H](Cc1c[nH]c2ccccc12)C(=O)N[C@@H](CCC(=O)O)C(=O)NCC(=O)N[C@H](C(=O)N[C@@H](CCCCN)C(=O)N[C@@H](CO)C(=O)N[C@@H](CC(C)C)C(=O)N[C@@H](Cc1ccccc1)C(N)=O)[C@@H](C)CC [ILGKFWEGIKSLF]

MIC (Candida albicans MDM8): 3.13 µM (≈ 4.88 µg/mL) | MIC [24]: 0.36 µM (≈ 0.561 µg/mL) | MIC [25]: 0.78 µM (≈ 1.22 µg/mL) | MIC [26]: 12.5 µM (≈ 19.5 µg/mL) | MIC [27]: 0.78 µM (≈ 1.22 µg/mL) | MIC (Micrococcus luteus A270): 0.78 µM (≈ 1.22 µg/mL) | MIC (Escherichia coli SBS 363): 0.78 µM (≈ 1.22 µg/mL) | MIC [15]: 1.56 µM (≈ 2.43 µg/mL) | MIC [28]: 3.13 µM (≈ 4.88 µg/mL) | MIC [29]: ≥ 50 µM
Compound: CC[C@H](C)[C@H](N)C(=O)N[C@@H](CC(C)C)C(=O)N[C@@H](CC(C)C)C(=O)N[C@@H](CCCCN)C(=O)N[C@H](C(=O)N[C@@H](Cc1c[nH]c2ccccc12)C(=O)N[C@@H](CCC(=O)O)C(=O)NCC(=O)N[C@H](C(=O)N[C@@H](CCCCN)C(=O)N[C@@H](CO)C(=O)N[C@@H](CC(C)C)C(=O)N[C@@H](Cc1ccccc1)C(N)=O)[C@@H](C)CC)[C@@H](C)CC [ILLKIWEGIKSLF]

MIC (Escherichia coli UB1005): 4.49 µM (≈ 8 µg/mL) | MIC [30]: 8.98 µM (≈ 16 µg/mL) | MIC [31]: ≥ 35.9 µM | MIC [19]: > 35.9 µM | MIC (Corynebacterium xerosis): 0.281 µM (≈ 0.5 µg/mL) | MIC (Listeria monocytogenes): 1.12 µM (≈ 2 µg/mL) | MIC [32]: ≥ 35.9 µM | MIC [33]: ≥ 35.9 µM | MIC [34]: 8.98 µM (≈ 16 µg/mL) | MIC (Streptococcus mitis): 0.281 µM (≈ 0.5 µg/mL) | MIC [35]: 35.9 µM (≈ 64 µg/mL)
Compound: CC[C@H](C)[C@H](NC(=O)[C@@H](NC(=O)[C@@H](NC(=O)[C@@H](NC(=O)[C@@H]1CCCN1C(=O)[C@H](CS)NC(=O)[C@H](CCCN=C(N)N)NC(=O)[C@H](CCCN=C(N)N)NC(=O)[C@@H](N)CCCN=C(N)N)[C@@H](C)CC)C(C)C)C(C)C)C(=O)N[C@@H](CCCN=C(N)N)C(=O)N[C@H](C(=O)N[C@@H](CS)C(=O)N[C@@H](CCCN=C(N)N)C(=O)N[C@@H](CCCN=C(N)N)C(=O)O)C(C)C [RRRCPIVVIRVCRR]

MIC (Escherichia coli UB1005): 2.23 µM (≈ 4 µg/mL) | MIC [30]: 4.45 µM (≈ 8 µg/mL) | MIC [31]: 17.8 µM (≈ 32 µg/mL) | MIC [19]: > 35.6 µM | MIC (Corynebacterium xerosis): 0.278 µM (≈ 0.5 µg/mL) | MIC (Listeria monocytogenes): 0.557 µM (≈ 1 µg/mL) | MIC [32]: 17.8 µM (≈ 32 µg/mL) | MIC [33]: ≥ 35.6 µM | MIC [34]: 4.45 µM (≈ 8 µg/mL) | MIC (Streptococcus mitis): 0.557 µM (≈ 1 µg/mL) | MIC [35]: 17.8 µM (≈ 32 µg/mL)
Compound: CC[C@H](C)[C@H](NC(=O)[C@@H](NC(=O)[C@@H](NC(=O)[C@@H]1CCCN1C(=O)[C@H](CS)NC(=O)[C@H](CC(C)C)NC(=O)[C@H](CCCN=C(N)N)NC(=O)[C@H](CCCN=C(N)N)NC(=O)[C@@H](N)CCCN=C(N)N)[C@@H](C)CC)C(C)C)C(=O)N[C@@H](CCCN=C(N)N)C(=O)N[C@H](C(=O)N[C@@H](CS)C(=O)N[C@@H](CCCN=C(N)N)C(=O)N[C@@H](CCCN=C(N)N)C(=O)O)C(C)C [RRRLCPIVIRVCRR]
